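Protocol summary: plate cells (96-well), add compound at 5 concentrations, incubate 48 h, interpolate endpoints linearly. GI50 = concentration required for 50% inhibition of growth.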 Active and inactive are the calls of the source. No stated cut-off is given here; in the data, active = GI50 up to about 1.1 µM and inactive = higher.
Columns and labels:
Assay in all cases: NCI-60 cell line screen, 48 h
[1] = test system: CAKI-1
[2] = test system: EKVX
[3] = test system: HCC 2998
[4] = test system: HCT-116
[5] = test system: HOP-62
[6] = test system: HT-29
[7] = test system: KM12
[8] = test system: LOX IMVI
[9] = test system: MOLT-4
[10] = test system: NCI-H460
[11] = test system: OVCAR-4
[12] = test system: RPMI-8226
[13] = test system: SK-MEL-2
[14] = test system: SK-OV-3
[15] = test system: SNB-19
[16] = test system: UACC-62
[17] = test system: KM-20L2
[18] = test system: M19-MEL
[19] = test system: NCI-H522
[20] = test system: SNB-78

Measured: GI50

COC(=O)N1CC2C3C4CC(C(c5ccccc5)=C4c4ccccc4)C3C21 (centres undefined)
inactive: [1] 12.6 µM | [2] 13.2 µM | [3] 16.3 µM | [4] 11.9 µM | [5] 19.3 µM | [6] 17.1 µM | [7] 14.6 µM | [8] 12.2 µM | [9] 12.5 µM | [10] 14.5 µM | [11] 13.1 µM | [12] 8.59 µM | [13] 19.8 µM | [14] 20 µM | [15] 21.1 µM | [16] 13.2 µM

CCOC(=O)C[n+]1ccc2c([nH]c3cc(OC)ccc32)c1C
inactive: [1] > 100 µM | [2] > 100 µM | [3] > 100 µM | [4] 61 µM | [5] > 78.3 µM | [6] > 100 µM | [17] > 65.2 µM | [7] > 100 µM | [8] 71.8 µM | [18] > 100 µM | [9] > 67 µM | [10] > 88.1 µM | [19] 68.2 µM | [11] > 100 µM | [12] > 100 µM | [13] > 100 µM | [14] > 100 µM | [15] > 100 µM | [20] > 100 µM | [16] > 100 µM

Cc1ccc(OP2(=O)Oc3ccc4ccccc4c3CN2c2ccc(Cl)cc2)cc1C (centres undefined)
inactive: [1] > 100 µM | [2] > 100 µM | [3] > 100 µM | [4] > 100 µM | [5] > 100 µM | [6] > 100 µM | [17] > 100 µM | [7] > 100 µM | [8] > 100 µM | [18] > 100 µM | [9] > 100 µM | [10] > 100 µM | [19] > 100 µM | [11] > 100 µM | [12] > 100 µM | [13] > 100 µM | [14] > 100 µM | [15] > 100 µM | [20] > 100 µM | [16] > 100 µM

O=[N+]([O-])c1cnccc1-n1nnc2ccccc21
inactive: [2] 22 µM | [3] 19.7 µM | [4] 24.4 µM | [5] 25.1 µM | [6] 28.3 µM | [17] 29.2 µM | [7] 17.2 µM | [8] 12.6 µM | [18] 15.3 µM | [9] > 48 µM | [10] 21.5 µM | [19] 16 µM | [11] 15.3 µM | [12] 32.9 µM | [13] 16.5 µM | [14] 23.3 µM | [15] 30.6 µM | [20] 27 µM | [16] 13.8 µM

Cc1ccccc1NC(=O)C(=O)C(C1OC(=O)c2ccccc21)[N+](=O)[O-] (centres undefined)
inactive: [1] > 100 µM | [2] > 100 µM | [3] > 100 µM | [4] > 100 µM | [5] > 100 µM | [6] > 100 µM | [17] > 100 µM | [7] > 100 µM | [8] > 100 µM | [18] > 100 µM | [9] > 100 µM | [10] > 100 µM | [19] 56.9 µM | [11] > 100 µM | [12] > 100 µM | [13] > 100 µM | [14] > 100 µM | [15] > 100 µM | [20] > 100 µM | [16] > 100 µM

S=C(NCCCCCCNC(=S)Nc1c2ccccc2nc2ccccc12)Nc1c2ccccc2nc2ccccc12
inactive: [1] > 100 µM | [2] > 100 µM | [3] > 96.2 µM | [4] 50.6 µM | [5] > 89.3 µM | [6] 54.5 µM | [17] 79.4 µM | [7] 10.9 µM | [8] 72.4 µM | [18] > 100 µM | [9] 32.4 µM | [10] 43.1 µM | [19] 64.6 µM | [11] 70 µM | [12] 95.5 µM | [13] > 100 µM | [14] > 100 µM | [15] > 83 µM | [20] > 87.7 µM | [16] > 100 µM

O=C(O)C1CCC(=O)N1S(=O)(=O)c1ccccc1 (centres undefined)
inactive: [1] > 100 µM | [2] > 100 µM | [3] > 100 µM | [4] > 100 µM | [5] > 100 µM | [6] > 100 µM | [17] > 100 µM | [7] > 100 µM | [8] > 100 µM | [18] > 100 µM | [9] > 100 µM | [10] > 100 µM | [19] > 100 µM | [11] > 100 µM | [12] > 100 µM | [13] > 100 µM | [14] > 100 µM | [15] > 100 µM | [20] > 100 µM | [16] > 100 µM

CSCSCC(N)CO.Cc1[nH]c(=O)[nH]c(=O)c1/C=C/C(=O)O
inactive: [1] 624 µM | [2] > 625 µM | [3] > 625 µM | [4] > 625 µM | [5] > 625 µM | [6] > 625 µM | [17] > 625 µM | [7] > 625 µM | [8] > 625 µM | [18] > 625 µM | [9] 590 µM | [10] > 625 µM | [19] > 625 µM | [11] > 625 µM | [12] > 625 µM | [13] > 625 µM | [14] > 625 µM | [15] > 625 µM | [20] 618 µM | [16] > 625 µM

C=CC1(NC(=O)c2ccccc2)CCC(C(C)(C)C)CC1 (centres undefined)
inactive: [2] > 47.1 µM | [3] 36.7 µM | [4] 22.8 µM | [5] 35.8 µM | [6] 23.9 µM | [17] 19.1 µM | [7] 35.2 µM | [8] 20.3 µM | [18] 29.5 µM | [9] 10.6 µM | [10] 31.1 µM | [19] 30.8 µM | [11] 27.7 µM | [12] 20.9 µM | [13] 25.2 µM | [14] 80.7 µM | [15] 30.1 µM | [20] 39.1 µM | [16] 26.6 µM

O=c1oc2cc(O)ccc2c2oc3cc(O)ccc3c12 [COUMESTROL]
inactive: [1] 49.9 µM | [2] 77.4 µM | [3] 53.6 µM | [4] 32.7 µM | [5] 16 µM | [6] 49 µM | [17] 41 µM | [7] 111 µM | [8] 42.1 µM | [18] 92.7 µM | [9] 13.8 µM | [10] 38.6 µM | [19] 6.46 µM | [11] 83.9 µM | [12] 45.8 µM | [13] > 125 µM | [14] 42.1 µM | [15] 47.6 µM | [20] 64.4 µM | [16] 71.6 µM

From ChEMBL document CHEMBL1201862, “PubChem BioAssay data set” (2004)
